# Assay results reported in patent publication US20250312334A1, “COMPOSITION CONTAINING ARIPIPRAZOLE AS ACTIVE INGREDIENT FOR ENHANCING ANTICANCER EFFECT OF RAF INHIBITOR” (KOREA INSTITUTE OF RADIOLOGICAL & MEDICAL SCIENCES, priority 2022, published 2025).
# System: COLO 205 cells
# Assay: Western blot of NOXA and PUMA protein expression after aripiprazole treatment
# Type: cell-based
# Settings: 8 hours after treatment, Western blot (FIG. 1)
# Method: To identify an effect of aripiprazole on the expression of NOXA and PUMA proteins in cancer cells, COLO 205 cells were treated with aripiprazole. Eight hours later, proteins were extracted from cells after washing with PBS, and a level of NOXA and PUMA expression was checked via Western blot.
smiles,measurement,value
O=C1CCc2ccc(OCCCCN3CCN(c4cccc(Cl)c4Cl)CC3)cc2N1 [aripiprazole],expression of NOXA protein,increased
same,expression of PUMA protein,increased
